# Results published in PMC11390726, “Automated design of multi-target ligands by generative deep learning” (Nature Communications, 2024).
# Entries after “also recorded” stand apart in the source; their conditions may differ.
# Assays:
# sEH = molecular target: T1, sEH (Homo sapiens, UniProt P34913); experiment: sEH enzyme activity assay with fluorogenic substrate PHOME; assay type: biochemical; conditions: mean, n ≥ 3
# T1 construct: His tag (inferred from HisTrap purification with imidazole elution); made in house; own inference
# T1 sequence (P34913 1-555): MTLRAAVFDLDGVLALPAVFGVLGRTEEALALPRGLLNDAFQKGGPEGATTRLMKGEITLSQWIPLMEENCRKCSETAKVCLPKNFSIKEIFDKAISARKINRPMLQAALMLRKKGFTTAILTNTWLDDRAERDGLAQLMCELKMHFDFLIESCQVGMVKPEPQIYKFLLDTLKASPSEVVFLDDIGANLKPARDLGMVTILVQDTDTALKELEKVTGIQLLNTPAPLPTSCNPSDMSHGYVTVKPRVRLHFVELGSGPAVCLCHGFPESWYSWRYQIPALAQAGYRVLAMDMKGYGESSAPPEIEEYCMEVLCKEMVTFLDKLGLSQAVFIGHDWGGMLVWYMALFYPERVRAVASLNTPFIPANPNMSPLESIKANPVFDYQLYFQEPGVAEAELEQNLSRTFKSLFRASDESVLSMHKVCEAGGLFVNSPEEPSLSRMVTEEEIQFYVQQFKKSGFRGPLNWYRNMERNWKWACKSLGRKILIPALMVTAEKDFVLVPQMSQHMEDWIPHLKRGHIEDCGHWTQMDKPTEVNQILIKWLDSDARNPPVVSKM
# From the text: (§1) Compound 7 was originally designed with tert-butyloxy motif which was replaced by tert-butyl for improved chemical stability. The dual ligand candidates were characterized in functional assays for the targets of interest using cellular Gal4-hybrid reporter gene assays[43] to determine FXR, THRβ and PPARδ modulation and an enzyme activity assay[44] with the fluorogenic substrate PHOME to test sEH inhibition (Table 1). In vitro characterization of the CLM designed dual FXR/sEH modulators 1–3 confirmed engagement of both targets by all three compounds with sub-micromolar to low micromolar potencies. […] All designed PPARδ/sEH modulators (7–9) were confirmed as dual ligands of the intended targets. 7 emerged as remarkably potent sEH inhibitor endowed with micromolar PPARδ agonist activity.
# Soluble epoxide hydrolase (sEH) was purified as described by Hahn et al.[68] and Lukin et al.[69], respectively. Protein expression was carried out in 500 ml ZYP5052 autoinduction medium containing Kanamycin (100 mg/L) with lactose uptake-dependent induction. The fermentation procedure started at 37 °C and 200 rpm until the OD600 reached approximately 1.0. Then the temperature was reduced to 16 °C. After 24–36 h the cells (OD600 ≈ 15.0) were harvested by centrifugation at 5000 × g (4 °C, 20 min). Pellets were resuspended in a resuspension buffer containing Tris (50 mM), NaCl (0.5 M) and MgCl2 (10 mM) at pH 8 and sonicated twice for 15 s on ice. The sonicated suspension was centrifuged (18,000 × g, 30 min, 4 °C) and the supernatant was ultracentrifuged (100,000 × g, 1 h 10 min, 4 °C). The ultracentrifugation supernatant was loaded on a 5 ml HisTrap® FF (GE Healthcare, München, Germany) column at a flow rate of 2 ml/min and washed with washing buffer containing Tris (50 mM), NaCl (0.5 M), MgCl2 (10 mM), imidazole (20 mM) and DTT (3 mM) at pH 8, and eluted at 120 mM imidazole. The fractions containing hsEH after SDS-PAGE fraction analysis were pooled. The identity of hsEH was confirmed by Western Blotting and hsEH hydrolase activity assay. The inhibitory potency of the compounds was determined using a fluorescence-based enzyme activity assay in which PHOME (3-phenyl-cyano(6-methoxy-2-naphthalenyl)methylester-2-oxiraneacetic acid) is metabolized by sEH hydrolase towards a fluorescent naphthalene aldehyde. Dilution series of the compounds were incubated for 30 min with recombinant sEH (final protein concentration 3 nM). Subsequently, the fluorogenic substrate PHOME at final concentration of 50 μM was added, and the fluorescence was measured every minute for 45 min using a Tecan plate reader (ex: 360 nm, em: 465 nm; bandwidth 35 nm). Inhibition in percent was plotted against the logarithmic test compound concentration and IC50-values were calculated using the “log(Inhibitor) vs. Response – Variable slope (four parameters)” equation in GraphPad Prism 7.
# PPARδ [1] = molecular target: T2, PPARδ (Homo sapiens, UniProt Q03181); experiment: Gal4-hybrid reporter gene assay PPARδ; assay type: cell-based; conditions: mean, n ≥ 3
# T2 construct: expressed in transfected cells; host or cells: HEK293T
# T2 sequence (Q03181 211-439 limits assumed): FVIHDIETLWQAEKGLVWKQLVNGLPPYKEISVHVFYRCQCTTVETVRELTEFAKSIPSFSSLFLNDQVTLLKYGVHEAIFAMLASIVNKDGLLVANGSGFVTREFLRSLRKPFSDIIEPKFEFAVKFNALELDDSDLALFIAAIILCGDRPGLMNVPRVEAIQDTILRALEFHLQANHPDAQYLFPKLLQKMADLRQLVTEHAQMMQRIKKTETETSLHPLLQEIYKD
# From the text: as §1
# HEK293T cells (ATCC, CRL-1573) were cultured in Dulbecco’s modified eagle medium (DMEM), high glucose, supplemented with 10% FCS, sodium pyruvate (1 mM), penicillin (100 U/mL), and streptomycin (100 µg/mL) to 70–80% confluence at 37 °C and 5% CO2 and seeded in clear 96-well plates with a density of 40,000 cells/well. After 24 h, the medium was changed to Opti-MEM without supplements. Transient transfection was performed using Lipofectamine LTX reagent (Invitrogen, Carlsbad, CA, USA) according to the manufacturer’s protocol with pFR-Luc (100 ng/well) as reporter plasmid, pRL-SV40 (2 ng/well) for normalization of transfection efficiency and cell growth, and one pFA-CMV-hNR-LBD clone coding for the hinge region and ligand binding domain (LBD) of the NR of interest. […] After overnight (14–16 h) incubation, luminescence was measured using the Dual-Glo® Luciferase Assay System (Promega, Madison, WI, USA) according to the manufacturer’s protocol with a Tecan Spark® 10 M multimode microplate reader. Relative light units (RLU) for normalization of transfection efficiency and cell growth were calculated by dividing firefly luminescence by renilla luminescence and multiplication by 1000. […]
# PPARδ [2] = system: PPARδ; parameters: method as in earlier work; conditions: fine-tuning set; BindingDB; read-out: potency on target (EC50 for PPARδ); cited from earlier work
# AT1 [3] = molecular target: T3, AT1 (Homo sapiens, UniProt P30556); experiment: IP-One assay for AT1 in stably transfected CHO-K1 cells; assay type: cell-based; conditions: cellular IP-One assay; mean, n ≥ 3
# T3 construct: expressed in transfected cells
# T3 sequence (P30556 1-359): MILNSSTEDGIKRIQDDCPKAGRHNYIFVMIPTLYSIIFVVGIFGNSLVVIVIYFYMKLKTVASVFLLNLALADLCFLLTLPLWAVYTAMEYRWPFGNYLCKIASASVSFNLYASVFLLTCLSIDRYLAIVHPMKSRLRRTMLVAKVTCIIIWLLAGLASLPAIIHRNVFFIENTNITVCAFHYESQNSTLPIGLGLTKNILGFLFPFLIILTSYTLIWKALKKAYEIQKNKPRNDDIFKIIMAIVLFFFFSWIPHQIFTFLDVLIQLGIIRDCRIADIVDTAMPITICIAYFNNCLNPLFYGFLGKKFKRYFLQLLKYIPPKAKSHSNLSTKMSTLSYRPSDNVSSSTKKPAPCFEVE
# Method: (§2) CHO-K1 cells (DSMZ, ACC110) were cultured at 5% CO2 and 37 °C in full growth medium (Ham’s F-12 medium supplemented with 10% fetal calf serum (FCS), penicillin (100 U/mL) and streptomycin (100 µg/mL)). For harvesting cells were incubated with Trypsin/EDTA. IP-One assay for AT1 and FFAR1. To investigate the ligand dependent activation of the two GPCRs, inositol mono-phosphate (IP-One) accumulation was monitored using an HTRF based displacement assay between FRET acceptor coupled IP-One and Terbium cryptate coupled anti-IP-One antibody (IP-One assay kit, Cisbio Bioassays, Codolet, France). AT1: the IP-One assay for AT1 was performed according to the protocol published by Hernandez-Olmos et al.[66] In brief, by using the sleeping beauty method a CHO-K1 cell line was generated which stably overexpresses AT1 isoform 1 and GNA11 (G-protein subunit α 11) as well as cells only overexpressing the GNA11 without any GPCR, as control. Cells were seeded into white tissue culture 384-well plates (Greiner Bio-One, Frickenhausen, Germany) at 15,000 cells/well and incubated overnight at 37 °C and 5% CO2. […] Antagonist activity of compounds was measured with parallel stimulation with 10 nM [Val5]-Angiotensin II. […] A full dose-response curve with FFAR1 reference agonist GW9508 was measured as control for assay performance. […]
# FFAR1 = molecular target: T4, FFAR1 (Homo sapiens, UniProt O14842); experiment: IP-One assay for FFAR1 in stably transfected CHO-K1 cells; assay type: cell-based; conditions: cellular IP-One assay; mean, n ≥ 3
# T4 construct: expressed in transfected cells
# Method: as §2
# AT1 [4] = molecular target: T3, AT1; parameters: method as in earlier work; conditions: fine-tuning set; BindingDB; read-out: potency on target (IC50 for AT1); cited from earlier work
# THRβ = system: THRβ; parameters: method as in earlier work; conditions: fine-tuning set; BindingDB; read-out: potency on target (EC50 for THRβ); cited from earlier work
# T4 sequence (O14842 whole entry): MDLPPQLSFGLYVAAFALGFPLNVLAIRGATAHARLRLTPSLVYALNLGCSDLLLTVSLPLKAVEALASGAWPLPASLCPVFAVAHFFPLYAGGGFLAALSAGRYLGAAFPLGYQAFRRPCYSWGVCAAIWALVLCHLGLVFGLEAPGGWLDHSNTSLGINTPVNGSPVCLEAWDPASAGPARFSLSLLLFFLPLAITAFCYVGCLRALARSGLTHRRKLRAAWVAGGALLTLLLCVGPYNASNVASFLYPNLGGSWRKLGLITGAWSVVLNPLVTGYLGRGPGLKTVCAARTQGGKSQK
smiles,measurement,setting,value
CC(C)(C)c1ccc(NC(=O)N[C@H]2CC[C@H](Oc3ccc(CCC(=O)O)cc3)CC2)cc1 [Compound 7],IC50,sEH,17 nM
same,EC50,PPARδ [1],10000 nM
CC#CC(CC(=O)O)c1ccc(OCc2cccc(-c3ccccc3C(=O)O)c2)cc1 (stereo not shown) [Compound 12],AT1: activity,AT1 [3],no effect; also recorded: inactive
same,EC50,FFAR1,8500 nM
O=C(O)c1ccc(OC2CCCN(C(=O)NCc3ccc(Cl)cc3Cl)CC2)cc1 (stereo not shown) [Compound 10],AT1: activity,AT1 [3],inactive
same,IC50,sEH,20 nM
O=C(O)CCc1ccc(OC2CCCN(C(=O)NCc3c(Cl)cc(Cl)cc3Cl)CC2)cc1 (stereo not shown) [Compound 8],IC50,sEH,200 nM
same,PPARδ: fold act. at 80 µM,PPARδ [1],6.7 fold
COc1ccc2c(c1OCc1ccccc1)CC(C(=O)O)N(C(=O)C(c1ccccc1)c1ccccc1)C2 (stereo not shown),IC50,AT1 [4],1000 nM
CCC(c1ccc(C(=O)O)cc1)c1cccc(NC(=O)Nc2ccc(OC(F)(F)F)cc2)c1 (stereo not shown) [Compound 11],FFAR1: activity,FFAR1,inactive
same,IC50,sEH,61 nM
CC(C)c1onc(-c2c(Cl)cccc2Cl)c1COc1ccc(CNc2ccc(CC(=O)O)cc2)c(Cl)c1,EC50,PPARδ [2],2000 nM
CCO[C@H](COc1ccc(C(F)(F)F)cc1)CSc1ccc(OCC(=O)O)c(C)c1,EC50,PPARδ [2],2 nM
O=C(O)CCc1ccc(OC2CCN(C(=O)NCc3c(Cl)cc(Cl)cc3Cl)CC2)cc1 [Compound 9],IC50,sEH,270 nM
same,PPARδ: fold act. at 80 µM,PPARδ [1],3.0 fold
CCCCc1cnc(C(=O)O)n1Cc1ccc(-c2ccccc2C)cc1,IC50,AT1 [4],3 nM
O=C(O)Cc1cc(Cl)c(Oc2ccc(O)c(C(=O)NCC(c3ccccc3)c3ccccc3)c2)c(Cl)c1,EC50,THRβ,0.5 nM
CCCCc1ncc(/C=C(\Cc2cccs2)C(=O)O)n1Cc1ccc(C(=O)O)cc1,IC50,AT1 [4],2 nM
